# Source: Sander's compilation of Henry's law constants (doi:10.1021/es00099a010)
# Test: Henry solubility constant Hcp at 298.15 K (mol/(m3 Pa))
# Details: reference: Atlas et al. (1982)
row,Compound,Henry solubility constant Hcp
1,"ClC(Cl)=C(c1ccc(Cl)cc1)c1ccc(Cl)cc1 [1,1-dichloro-2,2-bis-(4-chlorophenyl)-ethene]",0.0081
2,"Clc1ccc(Cl)c(-c2cccc(Cl)c2Cl)c1 [2,2',3,5'-tetrachlorobiphenyl]",0.013
3,"Clc1ccccc1-c1cccc(Cl)c1Cl [2,2',3-trichlorobiphenyl]",0.012
4,"Clc1cc(Cl)c(-c2ccccc2Cl)c(Cl)c1 [2,2',4,6-tetrachlorobiphenyl]",0.013
5,"Clc1ccc(Cl)c(-c2cc(Cl)ccc2Cl)c1 [2,2',5,5'-tetrachlorobiphenyl]",0.011
6,"Clc1ccc(Cl)c(-c2ccccc2Cl)c1 [2,2',5-trichlorobiphenyl]",0.0099
7,"Clc1cccc(-c2cccc(Cl)c2Cl)c1 [2,3,3'-trichlorobiphenyl]",0.012
8,"Clc1ccc(-c2ccc(Cl)c(Cl)c2Cl)cc1 [2,3,4,4'-tetrachlorobiphenyl]",0.012
9,"Clc1ccc(-c2cc(Cl)ccc2Cl)cc1 [2,4',5-trichlorobiphenyl]",0.011
10,"Clc1ccc(-c2ccccc2Cl)cc1 [2,4'-dichlorobiphenyl]",0.01
11,"Clc1ccc(-c2ccc(Cl)c(Cl)c2)cc1 [3,4,4'-trichlorobiphenyl]",0.012
12,ClC1=C(Cl)[C@]2(Cl)[C@@H]3[C@@H](Cl)[C@@H](Cl)C[C@@H]3[C@@]1(Cl)C2(Cl)Cl [cis-chlordane],0.011
13,ClC1=C(Cl)[C@]2(Cl)[C@H]3[C@H](Cl)[C@@H](Cl)C[C@H]3[C@@]1(Cl)C2(Cl)Cl [trans-chlordane],0.0074
14,"ClC1C(Cl)C(Cl)C(Cl)C(Cl)C1Cl (stereo not drawn) [α-1,2,3,4,5,6-hexachlorocyclohexane]",0.42
